# In US20220062240A1, “METHODS OF TREATING CANCER USING A CLK INHIBITOR” (BioSplice Therapeutics, Inc., priority 2018, published 2022):
# Where two headings read alike, the source gives them in different places.
# Experiments:
# CLK3 = CLK3 (Homo sapiens, UniProt P49761); test: CLK3 kinase activity assay (Z-lyte, Ser/Thr 18 peptide)
# [1] = tested on: lung cancer (4 cell lines); test: CellTiter-Glo Viability Assay, lung cancer; format: cell-based; settings: Homo sapiens, inhibition of cancer cell proliferation
# T47D = test: CellTiter-Glo Viability Assay, breast cancer; format: cell-based; settings: Homo sapiens, 96 h, breast cancer, four days, read-out: EC50
# BT-549 = test: CellTiter-Glo Viability Assay, breast cancer; format: cell-based; settings: Homo sapiens, 96 h; BT-549, breast cancer, four days; read-out: EC50
# CAMA1 = test: CellTiter-Glo Viability Assay, breast cancer; format: cell-based; settings: Homo sapiens, CAMA-1, 96 h; CAMA1, breast cancer, four days; read-out: EC50
# MDA-MB-231-Luc = test: CellTiter-Glo Viability Assay, breast cancer; format: cell-based; settings: Homo sapiens, 96 h; MDA-MB-231-Luc, breast cancer, four days; read-out: EC50
# HCC1599 = test: CellTiter-Glo Viability Assay, breast cancer; format: cell-based; settings: Homo sapiens, 96 h; HCC1599, breast cancer, four days; read-out: EC50
# DU4475 = test: CellTiter-Glo Viability Assay, breast cancer; format: cell-based; settings: Homo sapiens, DU-4475, 96 h; DU4475, breast cancer, four days; read-out: EC50
# ZR-75-1 = test: CellTiter-Glo Viability Assay, breast cancer; format: cell-based; settings: Homo sapiens, 96 h; ZR-75-1, breast cancer, four days; read-out: EC50
# MCF7 = test: CellTiter-Glo Viability Assay, breast cancer; format: cell-based; settings: Homo sapiens, 96 h; MCF7, breast cancer, four days; read-out: EC50
# [2] = tested on: ovarian cancer (4 cell lines); test: CellTiter-Glo Viability Assay, ovarian cancer; format: cell-based; settings: Homo sapiens, inhibition of cancer cell proliferation
# all 50 cell lines = test: CellTiter-Glo Viability Assay, average across all cell lines; format: cell-based; settings: Homo sapiens; across all 50 cell lines; read-out: average EC50 for inhibition of cancer cell proliferation
# In short: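 Cancer cell lines of several tumour types plated at 300-3,000 cells/well and exposed to compound in duplicate for four days at 37° C, 5% CO2, with DMSO-treated controls. Viability read by CellTiter-Glo luminescence (ATP content); EC50 derived from dose-response curves.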
# [3] = tested on: pancreatic cancer (8 cell lines); test: CellTiter-Glo Viability Assay, pancreatic cancer; format: cell-based; settings: Homo sapiens, inhibition of cancer cell proliferation
# [4] = tested on: liver cancer (3 cell lines); test: CellTiter-Glo Viability Assay, liver cancer; format: cell-based; settings: Homo sapiens, inhibition of cancer cell proliferation
# CLK2 = target: T1, CLK2 (Homo sapiens, UniProt P49760); test: CLK2 kinase activity assay (Z-lyte, Ser/Thr 6 peptide); format: biochemical; settings: recombinant CLK2 kinase, ATP 60 μM; read-out: EC50
# T1 construct: purchased Thermo Fisher (Life Technologies), Z'-LYTE Kinase Assay Kits
# T1 sequence (P49760 whole entry): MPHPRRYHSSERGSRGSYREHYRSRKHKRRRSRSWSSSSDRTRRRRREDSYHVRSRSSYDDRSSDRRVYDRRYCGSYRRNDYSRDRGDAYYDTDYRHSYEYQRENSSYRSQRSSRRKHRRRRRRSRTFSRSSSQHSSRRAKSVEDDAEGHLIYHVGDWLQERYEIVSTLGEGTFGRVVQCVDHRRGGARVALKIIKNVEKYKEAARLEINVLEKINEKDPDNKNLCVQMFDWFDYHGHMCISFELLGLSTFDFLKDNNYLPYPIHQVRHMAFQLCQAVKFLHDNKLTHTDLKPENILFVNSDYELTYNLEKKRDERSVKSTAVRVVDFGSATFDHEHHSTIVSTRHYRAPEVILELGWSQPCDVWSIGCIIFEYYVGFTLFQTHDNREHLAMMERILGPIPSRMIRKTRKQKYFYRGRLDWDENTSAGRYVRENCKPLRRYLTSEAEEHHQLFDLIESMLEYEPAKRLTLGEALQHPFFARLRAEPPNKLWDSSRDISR
# Protocol: All reactions were performed in duplicate.
# [5] = tested on: haematopoietic & lymphoid tumors (13 cell lines); test: CellTiter-Glo Viability Assay, haematopoietic & lymphoid tumors; format: cell-based; settings: Homo sapiens, inhibition of cancer cell proliferation
# [6] = tested on: prostate cancer (5 cell lines); test: CellTiter-Glo Viability Assay, prostate cancer; format: cell-based; settings: Homo sapiens
# [7] = tested on: colorectal cancer (6 cell lines); test: CellTiter-Glo Viability Assay, colorectal cancer; format: cell-based; settings: Homo sapiens, inhibition of cancer cell proliferation
# Chain of CLK3 (P49761 whole entry): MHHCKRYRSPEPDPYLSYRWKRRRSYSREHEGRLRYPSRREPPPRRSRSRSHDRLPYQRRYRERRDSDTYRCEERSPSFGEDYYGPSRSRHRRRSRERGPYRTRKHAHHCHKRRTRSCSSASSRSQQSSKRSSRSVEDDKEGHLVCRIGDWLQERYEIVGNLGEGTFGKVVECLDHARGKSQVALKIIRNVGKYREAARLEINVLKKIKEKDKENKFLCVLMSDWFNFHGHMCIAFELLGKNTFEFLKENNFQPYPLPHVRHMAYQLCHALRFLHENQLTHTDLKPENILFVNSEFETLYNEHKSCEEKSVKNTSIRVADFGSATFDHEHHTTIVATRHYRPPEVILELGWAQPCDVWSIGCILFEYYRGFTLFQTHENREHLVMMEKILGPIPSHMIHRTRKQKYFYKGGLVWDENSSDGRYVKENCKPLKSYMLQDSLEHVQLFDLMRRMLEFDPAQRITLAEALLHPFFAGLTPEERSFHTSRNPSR
smiles,measurement,setting,value
CN1CCC(Oc2ccc(C(=O)Nc3cc4cc(-c5cnn(C)c5)ccc4cn3)cc2)CC1 [Compound 68],EC50,CLK3,13.6 nM
same,EC50,"[1]; A-427, A427 cell line, read-out: Lung cancer, EC50 (μM) A427",0.506 µM
same,EC50,"[1]; HCC78, HCC-78 cell line, read-out: Lung cancer, EC50 (μM) HCC-78",1.14 µM
same,EC50,"[1]; NCI-H460 cell line, read-out: Lung cancer, EC50 (μM) NCI-H460",0.709 µM
same,EC50,"[1]; NCI-H522 cell line, read-out: Lung cancer, EC50 (μM) NCI-H522",0.277 µM
same,EC50,T47D,1180 nM
same,EC50,BT-549,421 nM
same,EC50,CAMA1,901 nM
same,EC50,MDA-MB-231-Luc,1110 nM
same,EC50,HCC1599,224 nM
same,EC50,DU4475,487 nM
same,EC50,ZR-75-1,1370 nM
same,EC50,MCF7,1820 nM
same,EC50,"[2]; PA-1, PA1 cell line, read-out: Ovarian cancer, EC50 (μM) PA1",0.537 µM
same,EC50,"[2]; TOV112D, TOV-112D cell line, read-out: Ovarian cancer, EC50 (μM) TOV-112D",0.327 µM
same,EC50,"[2]; OV-90 cell line, read-out: Ovarian cancer, EC50 (μM) OV-90",1.48 µM
same,EC50,"[2]; OVCAR-3 cell line, read-out: Ovarian cancer, EC50 (μM) OVCAR-3",0.232 µM
same,EC50,all 50 cell lines,632 nM
same,EC50,"[3]; BXPC-3, BxPC3 cell line, read-out: Pancreatic cancer, EC50 BxPC3",443 nM
same,EC50,"[3]; CAPAN-1, Capan1 cell line, read-out: Pancreatic cancer, EC50 Capan1",811 nM
same,EC50,"[3]; Capan-2, Capan2 cell line, read-out: Pancreatic cancer, EC50 Capan2",1650 nM
same,EC50,"[3]; MIA PaCa-2 cell line, read-out: Pancreatic cancer, EC50 MIA PaCa-2",279 nM
same,EC50,"[3]; PANC 05.04 cell line, read-out: Pancreatic cancer, EC50 PANC 05.04",1040 nM
same,EC50,"[3]; PANC-1 cell line, read-out: Pancreatic cancer, EC50 PANC-1",903 nM
same,EC50,"[3]; UPAFII cell line, read-out: Pancreatic cancer, EC50 UPAFII",435 nM
same,EC50,"[4]; SNU-398, SNU398 cell line, read-out: Liver cancer, EC50 SNU398",134 nM
same,EC50,"[4]; HEPG2 cell line, read-out: Liver cancer, EC50 HEPG2",597 nM
same,EC50,"[4]; PLC/PRF/5 cell line, read-out: Liver cancer, EC50 PLC/PRF/5",1270 nM
same,EC50,CLK2,0.6 nM
same,EC50,"[5]; DND41, DND-41 cell line, read-out: Haematopoietic & Lymphoid tumors, EC50 (μM) DND-41",0.571 µM
same,EC50,"[5]; MV4-11, MV-4-11 cell line, read-out: Haematopoietic & Lymphoid tumors, EC50 (μM) MV-4-11",0.07 µM
same,EC50,"[5]; Rec1, REC-1 cell line, read-out: Haematopoietic & Lymphoid tumors, EC50 (μM) REC-1",0.162 µM
same,EC50,"[5]; SU-DHL-4, SUDHL4 cell line, read-out: Haematopoietic & Lymphoid tumors, EC50 (μM) SUDHL4",0.523 µM
same,EC50,"[5]; HL-60 cell line, read-out: Haematopoietic & Lymphoid tumors, EC50 (μM) HL-60",0.958 µM
same,EC50,"[5]; JM1 cell line, read-out: Haematopoietic & Lymphoid tumors, EC50 (μM) JM1",0.165 µM
same,EC50,"[5]; JURKAT, Clone E6-1 cell line, read-out: Haematopoietic & Lymphoid tumors, EC50 (μM) JURKAT, Clone E6-1",0.561 µM
same,EC50,"[5]; JeKo-1 cell line, read-out: Haematopoietic & Lymphoid tumors, EC50 (μM) JeKo-1",0.176 µM
same,EC50,"[5]; KASUMI-1 cell line, read-out: Haematopoietic & Lymphoid tumors, EC50 (μM) KASUMI-1",0.257 µM
same,EC50,"[5]; Loucy cell line, read-out: Haematopoietic & Lymphoid tumors, EC50 (μM) Loucy",0.317 µM
same,EC50,"[5]; MOLT-4 cell line, read-out: Haematopoietic & Lymphoid tumors, EC50 (μM) MOLT-4",0.546 µM
same,EC50,"[5]; TF-1 cell line, read-out: Haematopoietic & Lymphoid tumors, EC50 (μM) TF-1",0.649 µM
same,EC50,"[5]; TOLEDO cell line, read-out: Haematopoietic & Lymphoid tumors, EC50 (μM) TOLEDO",0.183 µM
same,EC50,"[6]; DU-145, read-out: Prostate cancer EC50 Du-145",652 nM
same,EC50,"[6]; PC-3, PC3 cell line, inhibition of cancer cell proliferation, read-out: Prostate cancer EC50 PC3",602 nM
same,EC50,"[6]; 22Rv1 cell line, inhibition of cancer cell proliferation, read-out: Prostate cancer EC50 22Rv1",449 nM
same,EC50,"[6]; LNCap clone FGC cell line, inhibition of cancer cell proliferation, read-out: Prostate cancer EC50 LNCap clone FGC",651 nM
same,EC50,"[6]; VCaP (Sigma) cell line, inhibition of cancer cell proliferation, read-out: Prostate cancer EC50 VCaP (Sigma)",1380 nM
same,EC50,"[7]; HCT-116, HCT116 cell line, read-out: Colorectal cancer, EC50 (μM) HCT116",0.389 µM
same,EC50,"[7]; HT-29, HT29 cell line, read-out: Colorectal cancer, EC50 (μM) HT29",0.774 µM
same,EC50,"[7]; SW-620, SW620 cell line, read-out: Colorectal cancer, EC50 (μM) SW620",0.206 µM
same,EC50,"[7]; DLD-1 cell line, read-out: Colorectal cancer, EC50 (μM) DLD-1",0.35 µM
same,EC50,"[7]; SW48 cell line, read-out: Colorectal cancer, EC50 (μM) SW48",0.19 µM
same,EC50,"[7]; SW480 cell line, read-out: Colorectal cancer, EC50 (μM) SW480",0.546 µM
